IC50 data for one compound are collected here from ChEMBL document CHEMBL1148159, “An analysis of phakellin and oroidin structures stimulated by further study of an Agelas sponge” (J Nat Prod, 2004).

The target in the assay is T1, Polyunsaturated fatty acid lipoxygenase ALOX12 (Homo sapiens, UniProt P18054).
T1 sequence (P18054 whole entry): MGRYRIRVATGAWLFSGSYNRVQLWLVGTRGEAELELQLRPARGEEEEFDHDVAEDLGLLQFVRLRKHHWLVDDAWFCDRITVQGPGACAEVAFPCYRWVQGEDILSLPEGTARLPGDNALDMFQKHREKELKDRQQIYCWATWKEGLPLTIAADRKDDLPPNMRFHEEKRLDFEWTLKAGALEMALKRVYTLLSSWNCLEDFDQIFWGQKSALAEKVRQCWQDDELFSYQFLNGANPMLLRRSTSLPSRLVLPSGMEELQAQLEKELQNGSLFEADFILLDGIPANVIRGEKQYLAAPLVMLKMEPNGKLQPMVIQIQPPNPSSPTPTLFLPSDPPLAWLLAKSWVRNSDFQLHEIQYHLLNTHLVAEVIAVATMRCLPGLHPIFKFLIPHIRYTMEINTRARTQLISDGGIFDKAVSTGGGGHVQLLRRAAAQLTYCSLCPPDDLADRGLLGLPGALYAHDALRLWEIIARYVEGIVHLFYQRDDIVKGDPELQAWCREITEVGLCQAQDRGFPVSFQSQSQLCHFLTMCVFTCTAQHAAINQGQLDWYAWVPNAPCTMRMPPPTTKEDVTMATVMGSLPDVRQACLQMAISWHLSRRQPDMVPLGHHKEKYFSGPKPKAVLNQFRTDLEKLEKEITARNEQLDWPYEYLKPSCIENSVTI
In words: Inhibition of human 12-lipoxygenase.

A word on the IC50: it is the midpoint of a concentration-inhibition curve. Higher therefore signals weaker potency in that assay. `CN1C(N)=N[C@]23CCCN2C(=O)c2cc(Br)c(Br)n2[C@H]13` registered an IC50 of 10.7 µM.
